Measured values: patent US11268064B2, “Lactobacillus rhamnosus RHT-3201 conjugated to polysaccharide polymer binder, and use thereof for prevention or treatment of atopic diseases” (IL DONG PHARMACEUTICAL CO., LTD., priority 2014, dated 2022)

Experiments:
[1] = system: severe atopic dermatitis-induced NC/Nga mice; experiment: Severe atopic dermatitis model, SCORAD evaluation; type: in vivo; conditions: baseline, before treatment with test materials; positive control group
Protocol: RHT-3201 according to the present invention was used as a test material, while steroid-based dexamethasone (Sigma Co. Ltd), which is used as a main therapeutic agent for severe atopic dermatitis, was used as a positive control. An extract of Dermatophagoides farina, which is a major species of house dust mite, was used as an atopy inducing material. The extract was purchased in an ointment form from Central Lab. Animal Inc.
The dexamethasone was prepared by being dissolved in ethanol into a concentration of 0.1% (w/v), and RHT-3201 of the present invention was prepared by being dissolved in distilled water to doses of 1×10^8 CFU/0.5 ml/mouse, 1×10^9 CFU/0.5 ml/mouse, and 1×10^10 CFU/0.5 ml/mouse, respectively. […]
In the present evaluation, the severity of atopic dermatitis was expressed as a total of evaluation scores of five items, using SCORAD (SCORing Atopic Dermatitis), which is a generally used method for clinical macroscopic evaluation. […] The scores for the five items (no symptom (score 0), mild symptom (score 1), moderate symptom (score 2), severe symptom (score 3) for each item) were added up, while the evaluation score was determined between the lowest score of 0 (a state in which there is no symptom) and the highest score of 15 (a state in which the symptoms for all items were severe). The severity of the mouse skin lesions was evaluated every week (see FIG. 6). […]

[2] = Body weight measurement during administration; type: in vivo, NC/Nga mice; conditions: administration during eight weeks; dexamethasone transdermal, RHT-3201 oral (FIG. 9)
Protocol: The dexamethasone was prepared by being dissolved in ethanol into a concentration of 0.1% (w/v), and RHT-3201 of the present invention was prepared by being dissolved in distilled water to doses of 1×10^8 CFU/0.5 ml/mouse, 1×10^9 CFU/0.5 ml/mouse, and 1×10^10 CFU/0.5 ml/mouse, respectively. All the samples to be administered were prepared on the testing day. The dexamethasone was coated on the skin of a testing subject at 100 μl for each subject twice a week, while RHT-3201 according to the present invention was orally administered at 0.5 ml for each subject using a mouse zonde once a day. Distilled water was administered for a normal group and an atopy control group. The administration was conducted for 8 weeks in all the test groups.
The number of scratching behaviors for 15 minutes was counted once a week from week 1 of administration of a test drug. Only the number of scratching behaviors using a hind leg was counted in order to avoid counting scratching behaviors due to the other causes besides scratching behaviors due to pruritus. Meanwhile, the weight loss tends to occur due to side effects of drugs and stress at the time of inducing severe atopic dermatitis. In order to investigate whether the side effect of weight loss occurs by the test materials of the present invention, the test animals were weighed during the administration period of the test materials.

C[C@@H]1C[C@H]2[C@@H]3CCC4=CC(=O)C=C[C@]4(C)[C@@]3(F)[C@@H](O)C[C@]2(C)[C@@]1(O)C(=O)CO [Dexamethasone, dexamethasone]
Severe atopic dermatitis score Mean ± SE (n = 6) [1]: 10.8 ± 0.4
change in body weight [2]: weight loss for 4 weeks
